Results: patent publication US20040038222A1 (priority 2001, published 2004)

Tested on: C57BL/6J and C3H/HeJ primary bone marrow-derived macrophages

## brefeldin A [BFA]
  Effect of BFA alone on viability: no effect
  Susceptibility of resistant macrophages to intoxication with LF in the presence of BFA: completely susceptible
